For 39 compounds, Activity results are on record in ChEMBL document CHEMBL3727361, “Nitrogen bicyclic compounds as inhibitors for Scyl1 and Grk5” (2014).

The subject of the assay is Beta-TC6. Description: Increase in insulin release in mouse BetaTC6 cells assessed as relative insulin release activity at 10 uM incubated for 2 to 4 hrs by FRET based HTRF assay relative to sunitinib. The format is functional.
In the case of `CCOc1cccc(-c2cnc3cccnn23)c1`, the Activity is 10%.

`CN(C)c1cccc(-c2cnc3cnc(-c4ccncc4)cn23)c1`: the Activity turned out to be 20%.

For the compound `COc1ccc(-c2cn3c(-c4cccc(O)c4)cnc3cn2)cn1`, the Activity amounted to 20%.

For the compound `CN1CCN(C(=O)c2cccc(-c3cnc4cnc(-c5ccccc5Oc5ccccc5)cn34)c2)CC1`, the Activity is given as 20%.

`COc1cc(-c2cnc3ccc(NCc4cccc(Cl)c4)nn23)ccc1O`: the Activity came out at 20%.

For `CNc1ccc2ncc(-c3ccccc3O)n2n1`, the Activity is on record as 20%.

Take `NC(=O)c1ccc(-c2cnc3ccc(Cc4ccc(F)c(F)c4)nn23)cc1`: the Activity was 20%.

In the case of `Oc1ccc(-c2cnc3cnc(-c4ccc(Cl)cc4)cn23)cc1`, the Activity was determined as 20%.

`CC(=O)Nc1ccc(-c2cnc3ccc(-c4ccc(N5CCOCC5)cc4)nn23)cc1`: the Activity result is on record as “>=100%”.

With `Clc1cccc(-c2cn3c(-c4ccc5c(c4)OCO5)cnc3cn2)c1`, the Activity came out at 50%.

Take `FC(F)(F)Oc1cccc(-c2nnc3ccc(C#Cc4ccccc4)cn23)c1`: the Activity is given as 20%.

In the case of `CC(C)[C@@H](CO)Nc1ccc2ncc(-c3ccc(N)cc3)n2n1`, the Activity came out at 50%.

On to `COc1cc(-c2cn3c(-c4ccc5ncccc5c4)cnc3cn2)cc(OC)c1OC`, for which the Activity is 20%.

For the compound `COc1cc(-c2cnc3cnc(-c4ccc(N5CCN(C)CC5)nc4)cn23)ccc1O`, the Activity amounted to 20%.

Regarding `Nc1ccc(-c2cn3c(-c4ccc5c(c4)OCO5)cnc3cn2)cn1`, the Activity was 10%.

For the compound `O=C(NC1CC1)c1ccc(-c2cn3c(-c4ccccc4)cnc3cn2)cc1`, the Activity was determined as 20%.

For the compound `Fc1cccc(-c2cnc3cnc(-c4cccs4)cn23)c1`, the Activity was determined as 20%.

As to `Cc1ccccc1-c1cnc2cnc(-c3cccc(F)c3)cn12`, the Activity came to 10%.

As for `CC(C)c1cccc(-c2ccc3nnc(-c4cccnc4)n3c2)c1`, the Activity is given as 50%.

As to `CS(=O)(=O)c1ccc(-c2cnc3ccc(Cc4ccccc4)nn23)cc1`, the Activity worked out at 10%.

`OCc1ccc(-c2cn3c(-c4cccc(F)c4)cnc3cn2)cc1`: the Activity turned out to be 20%.

In the case of `NC(=O)c1cccc(-c2ccc3nnc(-c4cscn4)n3c2)c1`, the Activity was 20%.

Consider `Clc1cccc(-c2nnc3ccc(-c4ncccn4)cn23)c1`, for which the Activity is given as 10%.

Turning to `c1cncc(-c2cnc3cnc(-c4ccc(N5CCOCC5)cc4)cn23)c1`, the Activity worked out at 20%.

As for `Oc1cccc(-c2ccc3ncc(-c4cccc(C(F)(F)F)c4)n3n2)c1`, the Activity came to 20%.

As for `CN(C)CC#Cc1ccc2nnc(-c3ccccc3)n2c1`, the Activity was 10%.

As to `COc1ccc(-c2cnc3ccc(NCCCO)nn23)c(OC)c1`, the Activity turned out to be 10%.

Regarding `c1cncc(-c2cnc3ccc(-c4cccs4)nn23)c1`, the Activity was determined as 20%.

Turning to `O=C(NCCO)c1cccc(-c2cn3c(-c4cccc(OC(F)(F)F)c4)cnc3cn2)c1`, the Activity is 20%.

Take `Cc1ccccc1-c1nnc2ccc(-c3cccc(C(=O)NCCO)c3)cn12`: the Activity is recorded as 10%.

`Clc1cccc(-c2cn3c(-c4cccs4)cnc3cn2)c1`: the Activity was determined as 20%.

`Oc1cccc(-c2ccc3nnc(-c4ccccn4)n3c2)c1`: the Activity was 50%.

As to `N#Cc1ccc(-c2cnc3cnc(-c4ccc(CO)cc4)cn23)cc1`, the Activity came out at 20%.

With `O=C(Nc1cnc2cnc(-c3ccc4ccccc4c3)cn12)C1CCOC1` (centres undefined), the Activity is given as 10%.

Regarding `CC(=O)c1cccc(-c2cnc3cnc(-c4cccs4)cn23)c1`, the Activity turned out to be 50%.

As for `Oc1cccc(-c2cnc3ccc(-c4cccc5ncccc45)nn23)c1`, the Activity turned out to be 10%.

For `COc1cc(-c2cnc3cnc(-c4ccc(N5CCN(C)CC5)nc4)cn23)cc(OC)c1OC`, the Activity came to 20%.

As to `Cc1cc(-c2cn3c(-c4ccc5ncccc5c4)cnc3cn2)cc(C)c1O`, the Activity amounted to 20%.

Turning to `C(#Cc1ccccn1)c1ccc2nnc(-c3ccccc3)n2c1`, the Activity was 50%.
